We go through 26 molecules from patent US10213409B2, “Substituted benzofurans, benzothiophenes, benzoselenophenes and indoles and their use as tubulin polymerisation inhibitors” (Bionomics Limited, priority 2006, dated 2019).

As a reminder, the IC50 is the concentration needed to halve the response being measured.

What all share (format): cell-based
Test [1] concerns MDA-MB-231. As to the kind of experiment: Growth inhibition, Sulforhodamine B (SRB) or Systmex cell counting (CC) assay, MDA-MB-231. The settings on record: Homo sapiens; MDA-MB-231 (footnote b); concentration required to inhibit net cell growth by 50%; read-out: Cancer cell line IC50.
The subject of test [2] is Human umbilical vein endothelial cells (HUVECs), tumour type activated (Tum). Description: Proliferation Assay - Activated Endothelium (MTT). The settings on record: for IC50: Homo sapiens, HUVEC, tumour type activated endothelial cells; for potency towards activated (tumour) versus quiescent (normal) endothelial cells: comparison of activated and quiescent HUVEC assays, FIGS. 1 and 2, Table 1. As for the experimental part:
Proliferation Assay—Activated Endothelium:
Cells were cultured overnight at 37° C. 5% CO2. Medium was subsequently replaced with fresh medium including the compound or negative control. Cells were cultured for a period of 48 hrs. An MTT assay was performed to measure changes in cell numbers. Briefly, 20 μl of MTT reagent was added to cells containing 100 μl of EGM2 and incubated at 37° C. for 2 hours.

Test [3] relates to Human umbilical vein endothelial cells (HUVECs), normal quiescent type (Norm). Description: Proliferation Assay - Quiescent Endothelium (MTT). The settings on record: HUVEC. As for the experimental part: Proliferation Assay—Quiescent Endothelium:
Cells were cultured overnight at 37° C. 5% CO2. Medium was subsequently replaced with fresh medium including the compound or negative control. Cells were cultured for a period of 48 hrs. An MTT assay was performed to measure changes in cell numbers. Briefly, 20 μl of MTT reagent was added to cells containing 100 μl of EBM2+0.5% FBS and incubated at 37° C. for 2 hours.

The test system of test [4] is MCF-7. As to the kind of experiment: Growth inhibition, Sulforhodamine B (SRB) or Systmex cell counting (CC) assay, MCF-7. The settings on record: Homo sapiens, MCF7, concentration required to inhibit net cell growth by 50%, read-out: Cancer cell line IC50.

On to `COc1cc(C(=O)c2c(NCCN(C)C)oc3c(O)c(OC)ccc23)cc(OC)c1OC` [Example 21], for which the IC50 in test [1], in test [2] and in test [3] was 10 to 100 nM each time.

Regarding `COc1ccc2c(C(=O)c3cc(OC)c(OC)c(OC)c3)coc2c1` [Example 5, 3-(3,4,5-Trimethoxybenzoyl)-6-methoxy-benzofuran, reference compound], the IC50 was 55 nM in test [4], 10 to 100 nM in test [2] and 10 to 100 nM in test [3].

With `COc1cc(C(=O)c2coc3c(N)c(OC)ccc23)cc(OC)c1OC` [Example 2, (7-Amino-6-methoxybenzofuran-3-yl)(3,4,5-trimethoxyphenyl)methanone], the IC50 in test [1], in test [2] and in test [3] was 1 to 10 nM throughout.

Regarding `COc1cc(C(=O)c2c(NCC(=O)O)oc3c(O)c(OC)ccc23)cc(OC)c1OC` [Example 23, [7-hydroxy-6-methoxy-3(3,4,5-trimethoxy-benzoyl)-benzofuran-2-ylamino]acetic acid], the IC50 was 260 nM in test [4], 100 to 1000 nM in test [2] and 100 to 1000 nM in test [3].

As for `COC(=O)CNc1oc2c(O)c(OC)ccc2c1C(=O)c1cc(OC)c(OC)c(OC)c1` [Example 24, [7-Hydroxy-6-methoxy-3-(3,4,5-trimethoxy-benzoyl)-benzofuran-2-ylamino]-acetic acid methyl ester], the half-inhibitory concentration (IC50) in test [1], in test [2] and in test [3] was 1 to 10 nM each time.

In the case of `C#Cc1oc2c(O)c(OC)ccc2c1C(=O)c1cc(OC)c(OC)c(OC)c1` [Example 8, 2-Ethynyl-7-hydroxy-6-methoxy-3-(3,4,5-trimethoxybenzoyl)-benzofuran], the IC50 in test [4] is 3.3 nM; in test [2], 1 to 10 nM; in test [3] it was 1 to 10 nM.

For the molecule `COc1cc(C(=O)c2c(N(C)C)oc3c(O)c(OC)ccc23)cc(OC)c1OC` [Example 22, (2-N,N′-Dimethylamino-7-hydroxy-6-methoxy-benzofuran-3-yl)-(3,4,5-trimethoxy-phenyl)-methanone], the IC50 in test [1], in test [2] and in test [3] was 1 to 10 nM throughout.

`COc1ccc(/C=C\c2cc(OC)c(OC)c(OC)c2)cc1OP(=O)(O)O` [Comparator B, reference compound]: the IC50 in test [4] is 5 nM; in test [2], 1 to 10 nM; in test [3], 1 to 10 nM.

`COc1cc(C(=O)c2coc3c(O)c(OC)ccc23)cc(OC)c1OC` [Example 6, 3-(3,4,5-Trimethoxybenzoyl)-6-methoxy-7-hydroxybenzofuran]: the IC50 in test [4] is 45 nM; in test [2], 10 to 100 nM; in test [3] it was 10 to 100 nM.

As for `COc1cc(C(=O)c2c(Nc3cccnc3)oc3c(O)c(OC)ccc23)cc(OC)c1OC` [Example 25, [7-Hydroxy-6-methoxy-2-(pyridin-3-ylamino)-benzofuran-3-yl]-(3,4,5-trimethoxy-phenyl)-methanone], the IC50 in test [1], in test [2] and in test [3] was 1 to 10 nM throughout.

As for `COc1cc(C(=O)c2c(/C=C/C(N)=O)oc3c(O)c(OC)ccc23)cc(OC)c1OC` [Example 15, (E)-3-[7-Hydroxy-6-methoxy-3-(3,4,5-trimethoxy-benzoyl)benzofuran-2-yl]-acrylamide], the IC50 in test [1], in test [2] and in test [3] was 1 to 10 nM each time. Further, the “potency towards activated (tumour) versus quiescent (normal) endothelial cells” value in test [2] is on record as “higher potency towards tumour endothelial cells (activated) over normal endothelial cells (quiescent)”.

`COc1ccc2c(C(=O)c3cc(OC)c(OC)c(OC)c3)c(O)oc2c1` [Example 30, (2-Hydroxy-6-methoxybenzofuran-3-yl)(3,4,5-trimethoxyphenyl)methanone, reference compound]: the IC50 in test [4] is 575 nM; in test [2], 100 to 1000 nM; in test [3] it was 100 to 1000 nM.

`COc1cc(OC)cc(C(=O)c2coc3c(O)c(OC)ccc23)c1` [Example 52, 3-(3,5-Dimethoxybenzoyl)-7-hydroxy-6-methoxybenzo[b]furan]: the IC50 is 35 nM in test [4], 100 to 1000 nM in test [2] and 100 to 1000 nM in test [3].

With `COc1ccc(/C=C\c2cc(OC)c(OC)c(OC)c2)cc1O` [Comparator A, reference compound], the IC50 was 5 nM in test [4], 1 to 10 nM in test [2] and 1 to 10 nM in test [3].

As for `COc1ccc2c(C(=O)c3cc(OC)c(OC)c(OC)c3)c(Br)oc2c1` [Example 3, 2-Bromo-3-(3,4,5-trimethoxybenzoyl)-6-methoxybenzofuran, reference compound], the IC50 in test [4] is 500 nM; in test [2], 100 to 1000 nM; in test [3], 100 to 1000 nM.

`COc1cc(C(=O)c2c(SC)oc3c(O)c(OC)ccc23)cc(OC)c1OC` [Example 9, 7-Hydroxy-6-methoxy-2-methylsulfanyl-3-(3,4,5-trimethoxybenzoyl)benzofuran]: the IC50 is 1.2 nM in test [4], 0.1 to 1 nM in test [2] and 1 to 10 nM in test [3]. Besides, the “potency towards activated (tumour) versus quiescent (normal) endothelial cells” value in test [2] was “higher potency towards tumour endothelial cells (activated) over normal endothelial cells (quiescent)”.

With `COc1cc(C(=O)c2c(NCCO)oc3c(O)c(OC)ccc23)cc(OC)c1OC` [Example 20, [7-Hydroxy-2-(2-hydroxy-ethylamino)-6-methoxy-benzofuran-3-yl]-(3,4,5-trimethoxy-phenyl)methanone], the IC50 in test [1], in test [2] and in test [3] was 1 to 10 nM throughout.

On to `CNc1oc2c(O)c(OC)ccc2c1C(=O)c1cc(OC)c(OC)c(OC)c1` [Example 18, 2-(N-Methylamino)-7-hydroxy-3-(3,4,5-trimethoxybenzoyl)-6-methoxy-benzofuran], for which the figures for the IC50 in test [4], in test [2] and in test [3] were 3.5 nM, 1 to 10 nM and 0.1 to 1 nM, respectively.

Turning to `COC(=O)/C=C/c1oc2c(O)c(OC)ccc2c1C(=O)c1cc(OC)c(OC)c(OC)c1` [Example 14, (E)-3-[7-Hydroxy-6-methoxy-3-(3,4,5-trimethoxy-benzoyl)-benzofuran-2-yl]-acrylic acid methyl ester], the figures for the IC50 in test [4], in test [2] and in test [3] were 2 nM, 0.1 to 1 nM and 1 to 10 nM, respectively.

Turning to `COc1ccc2c(C(=O)c3c(F)c(F)c(F)c(F)c3F)coc2c1O` [Example 53, 3-(Pentafluorobenzoyl)-6-methoxy-7-hydroxybenzo[b]furan], the IC50 is 800 nM in test [4], more than 1000 nM in test [2] and more than 1000 nM in test [3].

As for `COc1cc(C(=O)c2c(N)oc3c(O)c(OC)ccc23)cc(OC)c1OC` [Example 19, (2-Amino-7-hydroxy-6-methoxy-benzofuran-3-yl)-(3,4,5-trimethoxyphenyl)-methanone], the IC50 in test [2] and in test [3] was 1 to 10 nM throughout.

For the molecule `CCC/C=C/c1oc2c(O)c(OC)ccc2c1C(=O)c1cc(OC)c(OC)c(OC)c1` [Example 13], the values for the IC50 in test [4], in test [2] and in test [3] were 8 nM, 1 to 10 nM and 1 to 10 nM, respectively.

For the molecule `COC(=O)c1oc2c(O)c(OC)ccc2c1C(=O)c1cc(OC)c(OC)c(OC)c1` [Example 17, 7-Hydroxy-6-methoxy-3-(3,4,5-trimethoxy-benzoyl)-benzofuran-2-methylcarboxylate], the IC50 in test [1], in test [2] and in test [3] was 1 to 10 nM each time.

As for `COc1cc(C(=O)c2c(CN(C)CC(=O)O)oc3c(O)c(OC)ccc23)cc(OC)c1OC` [Example 44, 2-[(N-Methyl-2-amino-aceticacid)-methenyl)-3-(3,4,5-trimethoxybenzoyl)-6-methoxy-7-hydroxy-benzo[b]furan], the IC50 in test [2] and in test [3] was 10 to 100 nM each time.

For the molecule `COc1ccc2c(C(=O)c3cc(OC)c(OC)c(OC)c3)c(C)sc2c1` [Example 51, 6-Methoxy-2-methyl-3-(3,4,5-trimethoxybenzoyl)benzo[b]thiophene, reference compound], the IC50 in test [2] and in test [3] was 1 to 10 nM each time.

`COc1cc(C(=O)c2c(NN)oc3c(O)c(OC)ccc23)cc(OC)c1OC` [Example 10, 2-Hydrazino-7-hydroxy-6-methoxy-3-(3,4,5-trimethoxybenzoyl)-benzofuran]: the 50% inhibitory concentration (IC50) in test [4] was 35 nM; in test [2] it was 1 to 10 nM; in test [3], 10 to 100 nM.
